Where two headings read alike, the source gives them in different places.
Legend:
Assay type in all cases: cell-based
[1] = system: He; assay: Anticancer MTT viability assay, He cells; details: He cancer cell line, 48 hours incubation, 0-100 μM
[2] = system: MC; assay: Anticancer MTT viability assay, MC cells; details: MC cancer cell line, 48 hours incubation, 0-100 μM
[3] = system: Jurk; assay: Anticancer MTT viability assay, Jurk cells; details: Jurk cancer cell line, 48 hours incubation, 0-100 μM
[4] = system: C. albicans; assay: Antimicrobial MTT viability assay, C. albicans; details: 0-100 μM
[5] = system: T. cruzi (ATCC 30013); assay: T. cruzi viability assay by microscopy; details: 100 μM frankiamicin A, eight days
[6] = system: S. pyogenes; assay: Antimicrobial MTT viability assay, S. pyogenes
[7] = system: A. baumanii; assay: Antimicrobial MTT viability assay, A. baumanii
[8] = system: P. aeruginosa; assay: Antimicrobial MTT viability assay, P. aeruginosa
[9] = system: Y. pestis
[10] = system: S. aureus; assay: Antimicrobial MTT viability assay, S. aureus; details: for MIC: S. aureus
Protocol: Antimicrobial and anticancer assays were conducted by quantifying viability of cells exposed to frankiamicin A (2-fold serial diluted in DMSO) at concentrations ranging from 0-100 μM using an MTT assay (Frolova et al., 2013, J Med Chem 56:6886-6900). For antimicrobial assays, a liquid culture of each test strain was grown overnight at 37° C. in TSB media in a rotary incubator. The resulting culture was diluted 1:100 into fresh media and 100 μL aliquots were transferred to a 96-well plate. Serial diluted compound was added to individual wells and cells were incubated at 37° C. for either 6 hours or 18 hours prior to MTT assay. Anticancer assays were conducted using approximately 4000 cells incubated overnight at 37° C. in 100 μL DMEM media supplemented with 10% FBS, adding serial diluted compound, and incubating for 48 hours prior to MTT assay. Assays of T. cruzi (ATCC 30013) were conducted by growing cells unshaken at 25° C. in ATCC Medium 1029 (LIT Medium) for five days, diluting 1:10 into fresh media, adding 100 μM frankiamicin A, incubating for an additional eight days, and assessing cell viability by microscopy using an untreated control for comparison.

[11] = system: methicillin-resistant S. aureus (MRSA); assay: Antimicrobial MTT viability assay, MRSA; details: for MIC: MRS(A)

Question: How did the IC50 [1] turn out when frankiamicin A was run?
Answer: Its IC50 is > 1000 nM.

Question: And the IC50 [2]?
Answer: The IC50 was > 1000 nM.

Question: What about the IC50 [3] of the same substance?
Answer: The IC50 was > 1000 nM.

Question: What about the IC50 [4] of the same substance?
Answer: Its IC50 is > 1000 nM.

Question: And the IC50 [5]?
Answer: Its IC50 is > 1000 nM.

Question: And the MIC ([6]; assessed after 6 h incubation)?
Answer: Its MIC is >1 µM.

Question: And the MIC ([6]; assessed after 18 h incubation)?
Answer: Its MIC is >1 µM.

Question: And the MIC ([7]; assessed after 6 h incubation)?
Answer: Its MIC is >1 µM.

Question: What about the MIC ([7]; assessed after 18 h incubation) of the same substance?
Answer: Its MIC is >1 µM.

Question: And the MIC ([8]; assessed after 6 h incubation)?
Answer: Its MIC is >1 µM.

Question: What about the MIC ([8]; assessed after 18 h incubation) of the same substance?
Answer: The MIC was >1 µM.

Question: And the MIC ([9]; assessed after 6 h incubation)?
Answer: Its MIC is >1 µM.

Question: And the MIC ([9]; assessed after 18 h incubation)?
Answer: The MIC was >1 µM.

Question: What about the MIC ([10]; assessed after 6 h incubation) of the same substance?
Answer: Its MIC is ~1 µM.

Question: What about the MIC ([10]; assessed after 18 h incubation) of the same substance?
Answer: Its MIC is >1 µM.

Question: What about the antimicrobial activity ([10]; wild-type S. aureus) of the same substance?
Answer: The antimicrobial activity was “detectable antimicrobial activity”.

Question: And the MIC ([11]; assessed after 6 h incubation)?
Answer: Its MIC is “~”.

Question: What about the MIC ([11]; assessed after 18 h incubation) of the same substance?
Answer: Its MIC is >1 µM.

Question: And the antimicrobial activity ([11]; methicillin-resistant S. aureus (MRSA))?
Answer: Its antimicrobial activity is “detectable antimicrobial activity”.

Reference: patent US10010558B2, “Frankiamicin A compositions and methods” (STC.UNM, priority 2015, dated 2018)
